Experiments:
Type in all cases: cell-based
[1] = test system: human iPS cells (201B7 strain); test: Immunostaining of aggregate frozen sections for retinal tissue markers Chx10 and Rx; set-up: proportion of Chx10-positive cells: dose or concentration left out as unconfirmed; details: Example 3, Essential 8, SAG day 0, day 18
Text: (§1) Cell aggregates on day 18 after the start of suspension culturing were fixed with 4% para-formaldehyde to produce frozen sections. These frozen sections were immunostained for Chx10 (anti-Chx10 antibody, Exalpha, sheep), which is one of the retinal tissue markers, or Rx (anti-Rx antibody, manufactured by TAKARA, guinea pig), which is one of the retinal tissue markers.
Cell aggregates on day 18 after the start of suspension culturing were fixed with 4% para-formaldehyde to produce frozen sections. These frozen sections were immunostained for Chx10 (anti-Chx10 antibody, Exalpha, sheep), which is one of the retinal tissue markers.

[2] = test system: human iPS cells (DSPC-3 strain); test: as above; details: Example 8; SAG 300 nM day 0; BMP4 1.5 nM day 3; day 22
Text: as §1, with “22” for “18”, “Takara,” for “TAKARA,”

[3] = test system: human iPS cells (DSPC-3 strain); test: Bright field observation of cell aggregates in suspension culture (neuroepithelium formation); details: Example 8; StemFit; SAG 300 nM day 0; day 22
Protocol: The thus-prepared subconfluent human iPS cells were treated with the cell dispersion solution by using TrypLE Select (manufactured by Life Technologies), further dispersed into single cells by pipetting operation, and the above human iPS cells dispersed into single cells were suspended in 100 μl of a serum-free medium at 1.2×10^4 cells per well of a non-cell-adhesive 96-well culture plate (SUMILON SPHEROID V-bottom plate PrimeSurface 96V-bottom plate, SUMITOMO BAKELITE). Thereafter, the cells were subjected to suspension culturing at 37° C., 5% CO2. As the serum-free medium (gfCDM+KSR) therefor, a serum-free medium which is a 1:1 mixture of F-12 medium and IMDM medium supplemented with 10% KSR, 450 μM 1-monothioglycerol, 1× Chemically defined lipid concentrate was used. At the time of the start of suspension culturing (day 0 after the start of suspension culturing, start of step 2), the above serum-free medium supplemented with Y27632 (final concentration 20 μM) and further supplemented with SAG as an exogenous Shh signal transduction pathway activating substance (final concentration 300 nM), or not supplemented with SAG (final concentration 0 nM) was used (FIG. 10). On day 2 after the start of suspension culturing, cell aggregates were formed. […]

[4] = test system: human iPS cells (1231A3 strain); test: Immunostaining of aggregate cryosections for retinal tissue markers Chx10 and Rx
Text: The above cell aggregates on day 19 after the start of suspension culturing were each fixed with 4% para-formaldehyde to give cryosections. These cryosections were immunostained for Chx10 (anti-Chx10 antibody, manufactured by Exalpha, sheep), which is one of the retinal tissue markers, or Rx (anti-Rx antibody, manufactured by TAKARA, guinea pig), which is one of the retinal tissue markers. In judgment of whether the above marker is positive in the immunostaining analysis, a fluorescence intensity which is not less than 2 times higher than that of the background was taken as positive.
as §1, with “The thus-prepared cell” for “Cell”, “culturing, which were produced by adding SAG in step 2 from feeder-free iPS cells as a starting material,” for “culturing”, “markers. These immunostained sections were observed under an inverted fluorescence microscope.” for “markers.”
The cell aggregates on day 18 after the start of suspension culturing were fixed with 4% para-formaldehyde to produce frozen sections. These frozen sections were immunostained for Chx10 (anti-Chx10 antibody, Exalpha, sheep), which is one of the retinal tissue markers.

[5] = Example 1, StemFit, SAG 300 nM day 0, BMP4 1.5 nM day 6, day 19
[6] = Example 1, StemFit, SAG 300 nM day 0, no BMP4, day 19
[7] = Example 4 Condition 1, SAG 300 nM day 0, BMP4 1.5 nM day 3, day 18
[8] = Example 4 Condition 2, SAG 300 nM day 0, BMP4 1.5 nM day 6, day 18
[9] = Example 5 Condition 1, SAG 600 nM day 0, BMP4 1.5 nM day 3, day 18
[10] = Example 5 Condition 2, SAG 600 nM day 0, BMP4 1.5 nM day 6, day 18

Compound: CNC1CCC(N(Cc2cccc(-c3ccncc3)c2)C(=O)c2sc3ccccc3c2Cl)CC1 (stereo not shown) [SAG]
- proportion of Rx-positive cells in the total cells ([1]; BMP4 1.5 nM day 6): not less than 40%
- proportion of Chx10-positive cells ([1]; no BMP4): not more than 3%
- proportion of Rx-positive cells in the total cells ([1]; no BMP4): not more than 3%
- proportion of Chx10-positive cells in the total cells [2]: about 10%
- proportion of Rx-positive cells in the total cells [2]: about 10%
- aggregate shape and neuroepithelium formation (bright field) [3]: cell aggregates were maintained, and neuroepithelium was formed
- proportion of Chx10-positive cells [4, 5]: not less than 60%
- proportion of Rx-positive cells in the total cells [4, 5]: not less than 60%
- proportion of Chx10-positive cells [4, 6]: less than 3%
- proportion of Rx-positive cells in the total cells [4, 6]: less than 3%
- proportion of Chx10-positive cells [4, 7]: about 40%
- proportion of Rx-positive cells in the total cells [4, 7]: about 40%
- proportion of Chx10-positive cells [4, 8]: about 40%
- proportion of Rx-positive cells in the total cells [4, 8]: about 40%
- proportion of Chx10-positive cells [4, 9]: about 40%
- proportion of Rx-positive cells in the total cells [4, 9]: about 40%
- proportion of Chx10-positive cells [4, 10]: about 40%
- proportion of Rx-positive cells in the total cells [4, 10]: about 40%
- presence of Chx10-positive cells in the cell aggregate ([4]; Example 7, SAG 30 nM or Shh 300 ng/ml day 0, BMP4 1.5 nM day 3, day 18): contained Chx10-positive cells
